Bridge positions count the residues as written; N and C are the ends. Square brackets hold non-standard residues; d marks the D form. Peptide text beside a SMILES is read from it. * marks the point of attachment. Ileψ(thiazoline)Cys = CC[C@H](C)[C@H](N)C1=N[C@H](C(=O)*)CS1; dOrn = NCCC[C@@H](N)C(=O)O
Assays:
[1] = test system: Pseudomonas sp. isolated from infected middle-ear fluid; test: Activity on paper disks and comparison with antibiotics (inhibition zones); type: cell-based; details: Ampicillin 10 μg, Bacitracin 10 units, Chloramphenicol 30 μg, Erythromycin 15 μg, Tetracycline 30 μg, peptide on paper disk
Description: Activity was tested against a Pseudomonas sp. isolated from infected middle-ear fluid.

strain ST4SA [2] = test: Antibiotic resistance of strain ST4SA (antibiotic discs, Oxoid); type: cell-based, Enterococcus mundtii
strain ST4SA [3] = test: Resistance of E. mundtii ST4 against antibiotics and anti-inflammatory drugs; type: cell-based, Enterococcus mundtii; details: Ibuprofen 5, Aspirin 5, Promoxil 100, Cipadur 50, Cefasyn 100, Roxibidd 30, Doximal 20, Ciploxx 100, Utin 80, Rheugesic 4, Coxflam 1.5, K-fenak 5, Preflam 3 mg/ml
strain ST4SA [4] = test: Growth of strain ST4SA in the presence of TMP-SMX and Metronidazole; type: cell-based, Enterococcus mundtii; details: for Number of viable cells of strain ST4SA: NAN Palargon, 18 h, 37° C., control 1 × 10^8
Description: Children with HIV/AIDS are treated with Trimethoprim-sulfamethoxazole (TMP-SMX) and/or Metronidazole to prevent diarrhea.

[5] = test system: Lactobacillus sakei DSM 20017; test: Blocking of the Lipid II target site with vancomycin; type: cell-based; details: L. sakei DSM 20017, FIG. 26
Source text: To test this hypothesis, the Lipid II target site of Lactobacillus sakei DSM 20017 (sensitive to peptide ST 4SA) was blocked with vancomycin (see schematic presentation, FIG. 26). Vancomycin adheres to the amino acid side chain of the Lipid II molecule, which would, theoretically, prevent peptide ST4SA from binding to the same site (that is if Lipid II acts as receptor). […] The fact that peptide ST4SA binds to more than one anchoring site on the sensitive cell may explain why it has such a broad spectrum of antimicrobial activity (inhibitory to Gram-positive and Gram-negative bacteria).

[6] = Pseudomonas, read-out: Diameter of inhibition zones

| Molecule | Inhibition zone of antibiotic on ST4 (strain ST4SA [2]) | Resistance of strain ST4SA to antibiotic (strain ST4SA [2]) | also measured |
| --- | --- | --- | --- |
| CC1(C)S[C@@H]2[C@H](NC(=O)[C@H](N)c3ccccc3)C(=O)N2[C@H]1C(=O)O [Ampicillin] | +++ (+++ = inhibition zone, diameter larger than 17 mm) |  | zone of inhibition at 10 µg/disc [1, 6]: 24 mm |
| CC(=O)Oc1ccccc1C(=O)O [Aspirin] |  |  | Inhibition zone of medicament on Strain ST4SA (strain ST4SA [3]): + (+ = diameters between 1 mm and 11 mm) |
| CC[C@H](C)[C@H](N)C1=N[C@H](C(=O)N[C@@H](CC(C)C)C(=O)N[C@H](CCC(=O)O)C(=O)N[C@H](C(=O)N[C@H]2CCCCNC(=O)[C@H](CC(N)=O)NC(=O)[C@@H](CC(=O)O)NC(=O)[C@H](Cc3cnc[nH]3)NC(=O)[C@@H](Cc3ccccc3)NC(=O)[C@H]([C@@H](C)CC)NC(=O)[C@@H](CCCN)NC2=O)[C@@H](C)CC)CS1 [Bacitracin] ({Ileψ(thiazoline)Cys}-L[dE]IK[dOrn]I[dF]H[dD]N; lactam 4-C) | ++ (++ = inhibition zone, diameter 12 to 16 mm) |  | Diameter of inhibition zones [1]: 10 mm |
| Cc1nnc(SCC2=C(C(=O)O)N3C(=O)[C@@H](NC(=O)Cn4cnnn4)[C@H]3SC2)s1 [Cephazolin] | + (+ = inhibition zone, diameter 1 to 11 mm) |  |  |
| O=C(N[C@H](CO)[C@H](O)c1ccc([N+](=O)[O-])cc1)C(Cl)Cl [Chloramphenicol] | +++ (+++ = inhibition zone, diameter larger than 17 mm) |  | zone of inhibition at 30 µg/disc [1, 6]: 28 mm |
| O=C(O)c1cn(C2CC2)c2cc(N3CCNCC3)c(F)cc2c1=O [Ciprofloxzcin] | +++ (+++ = inhibition zone, diameter larger than 17 mm) |  |  |
| Cc1onc(-c2ccccc2Cl)c1C(=O)N[C@@H]1C(=O)N2[C@@H]1SC(C)(C)[C@@H]2C(=O)O [Cloxacillin] | − | resistant |  |
| CC[C@H]1OC(=O)[C@H](C)[C@@H](O[C@H]2C[C@@](C)(OC)[C@@H](O)[C@H](C)O2)[C@H](C)[C@@H](O[C@@H]2O[C@H](C)C[C@H](N(C)C)[C@H]2O)[C@](C)(O)C[C@@H](C)C(=O)[C@H](C)[C@@H](O)[C@]1(C)O [Erythromycin] | +++ (+++ = inhibition zone, diameter larger than 17 mm) |  | Diameter of inhibition zones [1]: No zone |
| CC(C)Cc1ccc(C(C)C(=O)O)cc1 (stereo not shown) [Ibuprofen] |  |  | Inhibition zone of medicament on Strain ST4SA (strain ST4SA [3]): ++ (++ = diameters between 12 mm and 16 mm) |
| COc1cccc(OC)c1C(=O)N[C@@H]1C(=O)N2[C@@H]1SC(C)(C)[C@@H]2C(=O)O [Methicillin] | − | resistant |  |
| Cc1ncc([N+](=O)[O-])n1CCO [Metronidazole] | − | resistant | Decrease of cell numbers of strain ST4SA (strain ST4SA [4]): four; Number of viable cells of strain ST4SA (strain ST4SA [4]; Metronidazole 50 mg): 1.3 × 10^4; Number of viable cells of strain ST4SA (strain ST4SA [4]; Metronidazole 100 mg): 6 × 10^4; Number of viable cells of strain ST4SA (strain ST4SA [4]; Metronidazole 200 mg): 3 × 10^4 |
| CO[C@@H]1[C@@H](OC(N)=O)[C@@H](O)[C@H](Oc2ccc3c(O)c(NC(=O)c4ccc(O)c(CC=C(C)C)c4)c(=O)oc3c2C)OC1(C)C [Novobiocin] | +++ (+++ = inhibition zone, diameter larger than 17 mm) |  |  |
| C[C@@H]1[C@H](O)[C@@H](C)/C=C/C=C/CC/C=C/C=C/C=C/C=C/C(O[C@H]2O[C@H](C)[C@@H](O)[C@H](N)[C@@H]2O)CC2O[C@](O)(CC(O)C(O)CCC(O)CC(O)CC(O)CC(=O)O[C@H]1C)CC(O)C2C(=O)O (stereo partly shown) [Nystatin] | − | resistant |  |
| CC1COc2c(N3CCN(C)CC3)c(F)cc3c(=O)c(C(=O)O)cn1c23 (stereo not shown) [Oflaxacin] | ++ (++ = inhibition zone, diameter 12 to 16 mm) |  |  |
| Cc1onc(-c2ccccc2)c1C(=O)N[C@@H]1C(=O)N2[C@@H]1SC(C)(C)[C@@H]2C(=O)O [Oxacillin] | − | resistant |  |
| CO[C@H]1/C=C/O[C@@]2(C)Oc3c(C)c(O)c4c(O)c(c(/C=N/N5CCN(C)CC5)c(O)c4c3C2=O)NC(=O)/C(C)=C\C=C\[C@H](C)[C@H](O)[C@@H](C)[C@@H](O)[C@@H](C)[C@H](OC(C)=O)[C@@H]1C [Rifampicin] | +++ (+++ = inhibition zone, diameter larger than 17 mm) |  |  |
| [H]/N=C(/N)N[C@H]1[C@H](O)[C@@H](O)[C@H](O[C@@H]2O[C@@H](C)[C@](O)(C=O)[C@H]2O[C@@H]2O[C@@H](CO)[C@H](O)[C@@H](O)[C@@H]2NC)[C@@H](N/C(N)=N\[H])[C@@H]1O [Streptomycin] | − | resistant |  |
| CN(C)[C@@H]1C(O)=C(C(N)=O)C(=O)[C@@]2(O)C(O)=C3C(=O)c4c(O)cccc4[C@@](C)(O)[C@H]3C[C@@H]12 [Tetracycline] | +++ (+++ = inhibition zone, diameter larger than 17 mm) |  | zone of inhibition at 30 µg/disc [1, 6]: 35 mm |
| CN[C@H](CC(C)C)C(=O)N[C@H]1C(=O)N[C@@H](CC(N)=O)C(=O)N[C@H]2C(=O)N[C@H]3C(=O)N[C@H](C(=O)N[C@H](C(=O)O)c4cc(O)cc(O)c4-c4cc3ccc4O)[C@H](O)c3ccc(c(Cl)c3)Oc3cc2cc(c3O[C@@H]2O[C@H](CO)[C@@H](O)[C@H](O)[C@H]2O[C@H]2C[C@](C)(N)[C@H](O)[C@H](C)O2)Oc2ccc(cc2Cl)[C@H]1O [Vancomycin] | ++ (++ = inhibition zone, diameter 12 to 16 mm) |  |  |
| Neomycin | − | resistant |  |
| Nisin [reference compound] |  |  | Effect on target cells after blocking Lipid II with vancomycin [5]: prevented the binding of Nisin to the Lipid II target site |
| Penicillin | +++ (+++ = inhibition zone, diameter larger than 17 mm) |  |  |
| Trimethoprim-sulfamethoxazole [TMP-SMX] |  |  | Decrease of cell numbers of strain ST4SA (strain ST4SA [4]): four; Number of viable cells of strain ST4SA (strain ST4SA [4]; TMP-SMX 20/100 mg): 7 × 10^4; Number of viable cells of strain ST4SA (strain ST4SA [4]; TMP-SMX 40/200 mg): 8 × 10^4; Number of viable cells of strain ST4SA (strain ST4SA [4]; TMP-SMX 60/300 mg): 8 × 10^4; Number of viable cells of strain ST4SA (strain ST4SA [4]; TMP-SMX 80/400 mg): 1.8 × 10^4 |

Reference: patent US7951385B2, “Probiotic strain and antimicrobial peptide derived therefrom” (Cipla Medpro Research and Development (Pty) Ltd., priority 2006, dated 2011)
